Measurements reported in patent US20070275382A1, “Biomarkers for the Efficacy of Somatostatin Analogue Treatment” (priority 2003, published 2007).
*1 amine or outer side, *2 acyl side, *3 side chain or, on linkers, in order; H or OH if unused. Where a SMILES comes first, the peptide text is derived from it. Side-chain parts run from the residue outwards. [ ]: non-standard residue; d: D form. The star is where a group is joined. Ethylenediamine = C(CN[*:2])N[*:1]; Hyp = O=C(O)[CH]1C[CH](O)CN1; Phg = N[CH](C(=O)O)c1ccccc1; CO = O=C([*:1])[*:2]; Bn = c1ccc(C*)cc1

Test system: Brown fat
Assay: Microarray gene expression profiling (HG-U95A), brown fat
Type: in vivo, cynomolgus monkeys
Description: Origin of tissue and processing. Male and female cynomolgus monkeys received subcutaneously pasireotide (100 μg/animal/day) or the vehicle for 14 days. On day 15, all animals were sacrificed and tissues for RNA extraction were immediately snap-frozen and kept at −80° C. until processing.
RNA expression profiling was conducted by means of the HG-U95A gene expression probe array (Affymetrix; Santa Clara, Calif. USA), containing more than 12,600 probe sets interrogating primarily full-length human genes and also some control probe sets. The experiment was conducted according to the recommendations of the manufacturer. Briefly, total RNA was obtained by acid guanidinium thiocyanate-phenol-chloroform extraction (Trizol®, Invitrogen Life Technologies, San Diego, Calif. USA) from each frozen tissue section. The total RNA was then purified on an affinity resin (Rneasy®, Qiagen) and quantified. Double stranded cDNA was synthesized with a starting amount of approximately 5 μg full-length total RNA using the Superscript® Choice System (Invitrogen Life Technologies, Carlsbad, Calif. USA) in the presence of a T7-(dT)24 DNA oligonucleotide primer. Following synthesis, the cDNA was purified by phenol/chloroform/isoamyl alcohol extraction and ethanol precipitation. The purified cDNA was then transcribed in vitro using the BioArray® High Yield RNA Transcript Labeling Kit (ENZO, Farmingdale, N.Y. USA) in the presence of biotinylated ribonucleotides form biotin labelled cRNA. The labelled cRNA was then purified on an affinity resin (Rneasy®, Qiagen), quantified and fragmented. An amount of approximately 10 μg labelled cRNA was hybridized for 16 hours at 45° C. to an expression probe array. The array was then washed and stained twice with streptavidin-phycoerythrin (Molecular Probes,) using the GeneChip® Fluidics Workstation 400 (Affymetrix, Santa Clara, Calif. USA). The array was then scanned twice using a confocal laser scanner (GeneArray® Scanner, Agilent, Palo Alto, Calif. USA) resulting in one scanned image. This resulting “.dat-file” was processed using the MAS4 program (Affymetrix) into a “.cel-file”. The “.cel file” was captured and loaded into the Affymetrix GeneChip® Laboratory Information Management System (LIMS). The LIMS database is connected to a UNIX Sun Solaris server through a network filing system that allows for the average intensities for all probes cells (CEL file) to be downloaded into an Oracle database (NPGN). Raw data was converted to expression levels using a “target intensity” of 150. The data were evaluated for quality control and loaded in the GeneSpring® software 4.2.4 (Silicon Genetics, Calif. USA) for analysis.
On the human Affymetrix HGU95Av2 chip, probe sets for individual genes contain 20 oligonucleotide pairs, each composed of a “perfect match” 25-mer and a “mismatch” 25-mer differing from the “perfect” match oligonucleotide at a single base. After probe labelling, hybridization, and laser scanning, the expression level was estimated by averaging the differences in signal intensity measured by oligonucleotide pairs of a given probe (AvgDiff value). The fold changes and directions were calculated for selected genes, from the differences of the AvgDiff values between controls and treated.
To identify genes that were impacted by pasireotide, the dataset was initially filtered to exclude in a first wave of analysis, genes whose values were systematically in the lower expression ranges where the experimental noise is high (at least 80 in a number of experiments corresponding to the smallest number of replicas of any experimental point). In a second round of selection a threshold p-value of 0.05 (based on a t-test) identified differences between treated and control based on a two component error model (Global Error Model) and, whenever possible, with a stepdown correction for multi-hypothesis testing (Benjamini and Hochberg false discovery rate). […]

[1] = ↑ vs control, 100 μg/animal/day s.c., 14 days
[2] = ↓ vs control, 100 μg/animal/day s.c., 14 days

NCCCCC1NC(=O)C(Cc2c[nH]c3ccccc23)NC(=O)C(c2ccccc2)NC(=O)C2CC(OC(=O)NCCN)CN2C(=O)C(Cc2ccccc2)NC(=O)C(Cc2ccc(OCc3ccccc3)cc2)NC1=O (stereo not drawn) [Pasireotide, cyclo[4-(NH2—C2H4—NH—CO—O)Pro-Phg-DTrp-Lys-Tyr(4-Bzl)-Phe]] (cyclo(F[Hyp]([CO-Ethylenediamine])[Phg]WKY(Bn)); configuration not given here)
IGF-1 expression level, AvgDiff (range) (0.1 mg/animal/14day): 389 (315 to 449) | IGFBP 4 expression level, AvgDiff (range) (0.1 mg/animal/14day): 763 (429 to 1058) | IRS 2 expression level, AvgDiff (range) (0.1 mg/animal/14day): 146 (80 to 222) | SSTR3 expression level, AvgDiff (range) (0.1 mg/animal/14day): 194 (87 to 248) | Adrenergic, β-3-, receptor transcript fold change [1]: receptor ↑ x2.5 | Apotosis-associated tyrosine kinase transcript fold change [1]: tyrosine kinase ↑ x3.5 | CD2 antigen (cytoplasmic tail)-binding protein 2 transcript fold change [1]: binding protein 2 ↑ x2.5 | CSF 3 receptor (granulocyte) transcript fold change [1]: (granulocyte) ↑ x3 | Ca++ channel, voltage dependent, α 1H subunit transcript fold change [1]: ↑ x3 | Cadherin 5, VE-cadherin (vascular epithelium) transcript fold change [1]: epithelium) ↑ x3 | Cyclin T2 transcript fold change [1]: Cyclin T2 ↑ x2.5 | Dopamine receptor D3 transcript fold change [1]: ↑ x2.5 | Dual specificity PP MKP-5 transcript fold change [1]: MKP-5 ↑ x2.5 | Endothelial differentiation, sphingolipid G-protein-coupled receptor, 5 transcript fold change [1]: ↑ x2.5 | FSHR transcript fold change [1]: FSHR ↑ x2.5 | Follistatin-like 3 glycoprotein transcript fold change [1]: glycoprotein ↑ x3 | G protein-activated inwardly rectifying K+ channel transcript fold change [1]: channel ↑ x3.5 | GLUR, metabotropic 1 transcript fold change [1]: ↑ x2 | Guanine nucleotide binding protein (G protein), β polypeptide 3 transcript fold change [1]: ↑ x2.5 | IFN induced transmembrane protein 1 transcript fold change [1]: 1 ↑ x2.5 | IL 3 (CSF, multiple) transcript fold change [1]: ↑ x2 | IL 5R, α transcript fold change [1]: IL 5R, α↑ x2.5 | IL 7R precursor transcript fold change [1]: IL 7R precursor ↑ x2 | IRS (insulin receptor substrate) 2 transcript fold change [1]: substrate) 2 ↑ x2.5 | Oxytocin, prepro-(neurophysin I) transcript fold change [1]: (neurophysin I) ↑ x2.5 | PI glycan, class L transcript fold change [1]: x3.5 | PLC β 4 transcript fold change [1]: PLC β 4 ↑ x2 | PP 5, catalytic subunit transcript fold change [1]: ↑ x2.5 | T3 receptor transcript fold change [1]: T3 receptor ↑ x2 | TGF β 3 transcript fold change [1]: TGF β 3 ↑ x2.5 | TGF β-activated kinase-binding protein 1 transcript fold change [1]: ↑ x2.5 | VGF nerve growth factor inducible transcript fold change [1]: factor inducible ↑ x2 | Actin related protein 2/3 complex, subunit 1A (41 kD) transcript fold change [2]: (41 kD) ↓ x2.5 | CSF 1 (macrophage) transcript fold change [2]: ↓ x2 | Cadherin 13, H-cadherin (heart) transcript fold change [2]: cadherin (heart) ↓ x2 | Cadherin F1B1 transcript fold change [2]: Cadherin F1B1 ↓ x4 | Calcium/calmodulin-dependent protein kinase I transcript fold change [2]: kinase I ↓ x3.5 | Capping protein (actin filament), gelsolin-like transcript fold change [2]: ↓ x2.5 | Coagulation factor XIIIAI subunit precursor transcript fold change [2]: ↓ x5 | EGF receptor pathway substrate 15 transcript fold change [2]: substrate 15 ↓ x2 | Endothelial cell GF 1 (platelet derived) transcript fold change [2]: (platelet derived) ↓ x2 | Extra spindle poles, S. cerevisiae, homologue of transcript fold change [2]: of ↓ x2.5 | Fms-related tyrosine kinase 1 (VEGF/vascular permeability factor receptor) transcript fold change [2]: factor receptor) ↓ x4.5 | G1 to S phase transition transcript fold change [2]: transition ↓ x1.5 | G protein-coupled receptor 1 transcript fold change [2]: receptor 1 ↓ x2.5 | G α inhibiting activity polypeptide 3 interacting protein transcript fold change [2]: protein ↓ x5 | IFNγ-inducible protein 30 (IP30) transcript fold change [2]: 30 (IP30) ↓ x3.5 | IGF-1 transcript fold change [2]: IGF-1 ↓ x1.5 | IGF-binding protein 4 transcript fold change [2]: ↓ x2 | Neuroblastoma apoptosis-related RNA binding protein transcript fold change [2]: binding protein ↓ x3 | Neuroblastoma transcript fold change [2]: Neuroblastoma ↓ x2.5 | PCNA transcript fold change [2]: PCNA ↓ x2.5 | PI glycan, class F transcript fold change [2]: PI glycan, class F ↓ x2 | PI-3-kinase. regulatory subunit, polypeptide 2 (p85 β) transcript fold change [2]: (p85 β) ↓ x3.5 | PP 2, regulatory subunit B (B56), γ isoform transcript fold change [2]: isoform ↓ x1.5 | Pentaxin-related gene, rapidly induced by IL-1 transcript fold change [2]: ↓ x7.5 | THR interactor 10 transcript fold change [2]: ↓ x3 | THR interactor 12 transcript fold change [2]: ↓ x1.5 | TNF type 1 receptor associated protein transcript fold change [2]: associated protein ↓ x2
